Experimental data: BindingDB's records for doi:10.1021/jm00098a005 (Pfizer, 1992)

What was measured:
[1] = Compound was evaluated for binding affinity towards 5-hydroxytryptamine 1C receptor in pig choroid plexus using [3H]mesulergine as radioligand
[2] = Compound was evaluated for binding affinity towards 5-hydroxytryptamine 1D receptor in bovine caudate using [3H]- serotonin as radioligand

Compound	IC50 [1] [nM]	IC50 [2] [nM]
Cn1cc(CCN)c2c3c(ccc21)OCCC3	100	4200
CN(C)CCc1c[nH]c2ccc3c(c12)CCCO3	150	220
CN(C)CCc1cn(C)c2ccc3c(c12)CCCO3	100	9300
CN(C)CCc1c[nH]c2cc3c(cc12)OCCC3	2500	
NCCc1c[nH]c2ccc3c(c12)CCCO3	41	110
